Experimental data from ChEMBL document CHEMBL1201862, “PubChem BioAssay data set” (2004).
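A five-concentration, 48-hour dose response in 96-well plates underlies each endpoint, interpolated linearly between surrounding concentrations. GI50 = concentration required for 50% inhibition of growth.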 Active and inactive are the calls of the source. No stated cut-off is given here; in the data, active = GI50 up to about 1.1 µM and inactive = higher. Where a SMILES comes first, the peptide text is derived from it. Bridges are numbered along the chain shown (N, C = ends). [ ]: non-standard residue; d: D form. The star is where a group is joined. ξ: configuration not given here. PhAc = O=C(Cc1ccccc1)*; ξP = O=C(O)C1CCCN1

Tests used:
Experiment in all cases: DTP human tumour cell line panel, 48 h
CCRF-CEM = tested on: CCRF-CEM
HCC 2998 = tested on: HCC 2998
Hs-578T = tested on: Hs-578T
IGROV-1 = tested on: IGROV-1
LOX IMVI = tested on: LOX IMVI
M14 = tested on: M14
Malme-3M = tested on: Malme-3M
NCI-H23 = tested on: NCI-H23
PC-3 = tested on: PC-3
RXF 393 = tested on: RXF 393
SF-268 = tested on: SF-268
SF-295 = tested on: SF-295
SF-539 = tested on: SF-539
SNB-75 = tested on: SNB-75
SR = tested on: SR
SW-620 = tested on: SW-620
T47D = tested on: T47D
UACC-257 = tested on: UACC-257
UO-31 = tested on: UO-31
BT-549 = tested on: BT-549

SMILES	GI50 (CCRF-CEM)	GI50 (HCC 2998)	GI50 (Hs-578T)	GI50 (IGROV-1)	GI50 (LOX IMVI)	GI50 (M14)	GI50 (Malme-3M)	GI50 (NCI-H23)	GI50 (PC-3)	GI50 (RXF 393)	GI50 (SF-268)	GI50 (SF-295)	GI50 (SF-539)	GI50 (SNB-75)	GI50 (SR)	GI50 (SW-620)	GI50 (T47D)	GI50 (UACC-257)	GI50 (UO-31)	GI50 (BT-549)
CSc1nc2c3ccccc3ccn2c1C(=O)N/N=C/c1ccccc1	> 100 µM (inactive)	> 100 µM (inactive)	30.8 µM (inactive)	33.7 µM (inactive)	> 100 µM (inactive)	> 100 µM (inactive)	47.6 µM (inactive)	30.2 µM (inactive)	> 100 µM (inactive)	32 µM (inactive)	19.7 µM (inactive)	24 µM (inactive)	1.43 µM (inactive)	> 42.7 µM (inactive)	41.9 µM (inactive)	97.9 µM (inactive)	27.9 µM (inactive)	> 100 µM (inactive)	21.8 µM (inactive)	–
COc1ccc(/C=C/C(=O)c2ccc(Br)cc2)cc1	> 100 µM (inactive)	> 100 µM (inactive)	64.7 µM (inactive)	> 100 µM (inactive)	–	> 100 µM (inactive)	> 100 µM (inactive)	30.6 µM (inactive)	> 100 µM (inactive)	–	> 100 µM (inactive)	> 100 µM (inactive)	> 100 µM (inactive)	93.5 µM (inactive)	84.1 µM (inactive)	> 100 µM (inactive)	42.4 µM (inactive)	> 10 µM (inactive)	78.7 µM (inactive)	–
COc1ccc([S+]([O-])Cc2cc(OC)ccc2OC)cc1 (stereo not given)	> 100 µM (inactive)	> 100 µM (inactive)	–	> 100 µM (inactive)	> 100 µM (inactive)	> 100 µM (inactive)	> 100 µM (inactive)	> 100 µM (inactive)	> 100 µM (inactive)	> 100 µM (inactive)	> 100 µM (inactive)	> 100 µM (inactive)	> 100 µM (inactive)	> 100 µM (inactive)	–	> 100 µM (inactive)	> 100 µM (inactive)	> 100 µM (inactive)	> 100 µM (inactive)	> 100 µM (inactive)
O=C1NC(=S)NC(=O)C1=CC1CC1	> 100 µM (inactive)	> 100 µM (inactive)	–	> 100 µM (inactive)	> 100 µM (inactive)	> 100 µM (inactive)	> 100 µM (inactive)	> 100 µM (inactive)	–	> 100 µM (inactive)	> 100 µM (inactive)	> 100 µM (inactive)	> 100 µM (inactive)	46.3 µM (inactive)	> 100 µM (inactive)	> 100 µM (inactive)	–	> 100 µM (inactive)	> 100 µM (inactive)	–
CCOC(=O)C1=C(OC(OCC)C(C)[Se]c2ccccc2)CCC1 (stereo not given)	16.5 µM (inactive)	78.3 µM (inactive)	–	26.4 µM (inactive)	7.21 µM (inactive)	20.5 µM (inactive)	28.1 µM (inactive)	12.4 µM (inactive)	–	15.7 µM (inactive)	13.3 µM (inactive)	19.8 µM (inactive)	17.5 µM (inactive)	30.1 µM (inactive)	6.4 µM (inactive)	–	–	39.7 µM (inactive)	24.7 µM (inactive)	–
CCCCOc1ccc(S(=O)(=O)/N=C(\NN)Nc2ccc(Cl)cc2)cc1	20 µM (inactive)	–	–	26.1 µM (inactive)	19.8 µM (inactive)	24.2 µM (inactive)	26.9 µM (inactive)	36.1 µM (inactive)	17.7 µM (inactive)	16.7 µM (inactive)	17.4 µM (inactive)	23.4 µM (inactive)	17.7 µM (inactive)	12.2 µM (inactive)	21.2 µM (inactive)	29.4 µM (inactive)	16.2 µM (inactive)	23.1 µM (inactive)	18.2 µM (inactive)	> 100 µM (inactive)
CCN(CC)C(=O)CCNC(C)Cc1c[nH]c2ccccc12 (stereo not given)	> 100 µM (inactive)	> 100 µM (inactive)	> 100 µM (inactive)	> 100 µM (inactive)	> 100 µM (inactive)	> 100 µM (inactive)	> 100 µM (inactive)	> 100 µM (inactive)	> 100 µM (inactive)	> 100 µM (inactive)	> 100 µM (inactive)	> 100 µM (inactive)	> 100 µM (inactive)	> 100 µM (inactive)	> 100 µM (inactive)	> 100 µM (inactive)	> 100 µM (inactive)	> 100 µM (inactive)	> 100 µM (inactive)	–
O=C(Cc1ccccc1)N[C@@H]1COC(=O)C2CCCN2C(=O)[C@@H]2CCCN2C1=O (stereo not given in full) (PhAc-[dS]-Pro-[ξP]; ester 1-C)	> 100 µM (inactive)	> 100 µM (inactive)	> 100 µM (inactive)	> 100 µM (inactive)	> 100 µM (inactive)	> 100 µM (inactive)	> 100 µM (inactive)	> 100 µM (inactive)	> 100 µM (inactive)	> 100 µM (inactive)	> 100 µM (inactive)	> 100 µM (inactive)	> 100 µM (inactive)	< 0.01 µM (active)	> 100 µM (inactive)	> 100 µM (inactive)	> 100 µM (inactive)	> 100 µM (inactive)	–	–
